These results are taken from patent US5840697A, “Peptide inhibitors of calmodulin” (Torrey Pines Institute for Molecular Studies, priority 1996, dated 1998).

Test [1] addresses T1, calmodulin (Homo sapiens, UniProt P0DP23). Kind of test: calcium-dependent phosphodiesterase assay (calmodulin activity). The format is biochemical. The essentials: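 Calmodulin (5 units) stimulation of Ca2+-activated phosphodiesterase measured by coupling cAMP→5'-AMP to 5'-nucleotidase, with released Pi read at 660 nm after ammonium molybdate reaction.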
In another test the target is phosphodiesterase. The experiment in a line: calcium-dependent phosphodiesterase assay in the absence of calmodulin. The format is biochemical. The note with it: Table III. As to the method:
To sample assay tubes were added the following components: assay buffer, 25 ul; CaCl2, 5 ul; 5'-nucleotidase, 7.5 ul (stock solution is 10 units/ml); calmodulin 5 units; calmodulin inhibitor peptides to obtain the desired final concentration of 50 μM. The volume was then made up to 200 ul with water. Control blanks were prepared replacing the peptides with water. The added components were thoroughly mixed and the tubes incubated at 30° C. for 10 min. Then, 25 ul of cAMP at 10.8 mM was added and incubated for 90 min at 30° C. The reaction was stopped by the addition of 50 ul of 55% trichloroacetic acid (TCA). The samples were centrifuged to remove the protein precipitate and the 50 ul of the supernatant was withdrawn for phosphate measurement. To the supernatant aliquot, 50 ul ammonium molybdate (0.55% in 1.1 N sulfuric acid) was added, followed by the addition of 5 ul of reducing agent (24 g sodium bisulfite, 2.4 g sodium sulfite, 0.5 g of 1-amino-2-naphthol-4-sulfonic acid in 200 ml of water), and the contents were mixed by vortexing. The absorbance of the solution were read at 660 nm using water as a blank, identified as control "Calmo."
As described above, one of the undesirable biological effects of existing calmodulin inhibitors is their non-specific binding to other proteins and the like. Therefore, the specificity of the instant inhibitory peptides for calmodulin was examined. The specificity was determined using the calcium-dependent phosphodiesterase assay described in Example I. The assay was carried out for the determination of IC50 values in the presence of calmodulin (IC50 value for calmodulin) and in the absence of calmodulin (IC50 for phosphodiesterase), the latter of which provides the effect of the inhibitory peptides on the phosphodiesterase.

Test [2] has as its target T1, calmodulin. The experiment in a line: electrophoretic band shift assay of peptide-calmodulin complexes. It is filed as binding. Here is the method: The following samples were subjected to electrophoresis in the gel lane indicated:
Because melittin is known to bind to calmodulin as described, for example, in Comte et al., Biochem. J., 209:269-272 (1983), in the above samples melittin is the positive control. The samples were incubated with calmodulin at 22° C. for 1 hr, and electrophoresed on a 10% acrylamide gel in Tris-glycine buffer under nondenaturating conditions as described in Head and Perry, Biochem. J., 137:145-154 (1974), which is incorporated herein by reference. The gel was then stained with coomasie blue.
The band shifts were also measured using a densitometer. Determination of band width by densitometry was done on the following samples: (1) calmodulin (1 nmol)+EDTA (2 nmol); (2) calmodulin (1 nmol)+Ca^2+ (1 nmol)+Ac-(D)Leu-(D)Trp-(D)Arg-(D)Ile-(D)Leu-(D)Trp-NH2 (100 nmol); and (3) calmodulin (1 nmol)+Ca^2+ (1 nmol).

In a further test the test system is rat liver cells. The experiment in a line: in vivo rat model: DNA synthesis of rat liver cells after partial hepatectomy. The note with it: intravenous injection 5 hours after partial hepatectomy, measured 24 hours post hepatectomy. An excerpt: The effect that calmodulin inhibitors have on DNA synthesis were also studied in vivo in a rat model. Rat liver cells are a useful in vivo system for studying synchronized cells and the cell cycle. By partial hepatectomy, the hepatocyte quiescent cells present in normal adult rat liver can be stimulated to enter the replicative cell cycle and the effect of inhibitors on the cycle analyzed. This example provides the effect of the subject calmodulin inhibitory peptides on the DNA synthesis of rat liver cells in partial hepatectomy stage following intra venal injection of the peptides.
Male Sprague-Dawley rats ([…]; 2 rats per peptide or control) were fasted overnight. Partial hepatectomies were carried out under Ketolar anesthesia (Parke-Davis; Ann Arbor, Mich.), following the procedure described by Higgins and Anderson in Arch. Pathol., 12:186-202 (1931), which is incorporated herein by reference. […] DNA synthesis was assessed by measuring the radioactivity incorporated into DNA following an intraperitoneal injection (0.5 mCi/g body weight) of [^3 H] thymidine 1 hr prior to killing the rat and at 23 hours post hepatectomy. […] The liver tissue was homogenized in 10% trifluoroacetic acid at 4° C. and the DNA extracted and its radioactivity measured following the procedure described by Burton, Biochem. J., 62:315-320 (1956), which is incorporated herein by reference. […]

Like-named read-outs stand apart in the source and are kept apart here. Square brackets hold non-standard residues; d marks the D form. Peptide text beside a SMILES is read from it.

`CC[C@@H](C)[C@@H](NC(=O)[C@@H](CCCNC(=N)N)NC(=O)[C@@H](Cc1c[nH]c2ccccc12)NC(=O)[C@@H](CC(C)C)NC(C)=O)C(=O)N[C@H](CC(C)C)C(=O)N[C@H](Cc1c[nH]c2ccccc12)C(N)=O` [Ac-(D)Leu-(D)Trp-(D)Arg-(D)Ile-(D)Leu-(D)Trp-NH2] (Ac-[dL][dW][dR][dI][dL][dW]-NH2): the IC50 at calmodulin [1] (Table I, assayed at 75, 50 and 12.5 μM, average of repeated assays, read-out: Average IC50) is 5.4 µM; at calmodulin [1] (Table III, in the presence of calmodulin, read-out: IC50 (μM) for calmodulin) it was 7.1 µM; on phosphodiesterase, 118 µM. For the same compound, the SPECIFICITY on calmodulin [1] (comparison of IC50 for phosphodiesterase with IC50 for calmodulin) is given as 17. The “band shift (mobility change) on binding to calmodulin” value was “shifted relative to lane 8” at calmodulin [2] (in the presence of Ca2+) and “no band shift” on calmodulin [2] (with EDTA (no calcium)). Besides, the “% DNA SYNTHESIS” value in the test on rat liver cells was found to be 50%.

In general, IC50 refers to the concentration needed to halve the response being measured.
